Where no end group is shown, it is not given here.
Legend:
[1] = tested on: T4 topoisomerase (type II); assay: T4 topoisomerase DNA relaxation assay; assay type: biochemical, bacteriophage T4; conditions: for effect on DNA relaxation: 100 μM peptide
Protocol: T4 topoisomerase assays. Reactions were performed as described (Huff and Kreuzer, 1990) using 30 or 60 ng of enzyme and 200 ng of supercoiled pUC19 per reaction. The products were electrophoresed on 0.8% agarose gels at 40V in 0.5× Tris borate EDTA buffer for about 6 hours. The gel was then stained with EtBr for viewing.

[2] = target: bacteriophage λ Integrase (Int) (Escherichia phage lambda, UniProt P03700); assay: Resolution of isolated excision Holliday junctions by Int, IHF and Xis; assay type: biochemical; conditions: peptide 100 μM
Protocol: FIG. 18 depicts effect of peptide WKHYNY on DNA cleavage. A. Time course of resolution of excision HJs. HJs were isolated, and Int, IHF, and Xis were added in the presence or absence of peptide 52 (100 μM) and stopped at various timepoints (1, 5, 15, 30, 60, and 90 min). Absence of peptide, closed circles; presence of peptide, open squares. B. The extent of strand cleavage of attL. An attL site containing a phosphorothiolate modification at the point of top strand cleavage (attLS) was incubated with Int, IHF, and Xis, in the presence of attR and in the presence or absence of peptide WKHYNY. Absence of peptide, open squares; presence of peptides, closed diamonds.
Holliday junctions can be resolved either in the “forward” direction to form recombinant products or in the “reverse” direction to re-form substrates. Synthetic HJs representing intermediates in the unidirectional reactions are preferentially resolved in the direction of products (Hsu and Landy, 1984; Franz and Landy, 1990, 1995). We wanted to determine whether HJs isolated in the presence of peptide behave similarly to the synthetic HJs. In addition, we wanted to analyze the processing of bent-L HJs. Recombination reactions were assembled in the presence of peptide WKHYNY, and protein-free HJs were isolated from SDS-containing gels, eluted, and precipitated. […]

[3] = target: T1, bacteriophage λ Integrase (Int) (Escherichia phage lambda, UniProt P03700); assay: Int-mediated straight-L recombination; assay type: biochemical
T1 sequence (P03700 1-356): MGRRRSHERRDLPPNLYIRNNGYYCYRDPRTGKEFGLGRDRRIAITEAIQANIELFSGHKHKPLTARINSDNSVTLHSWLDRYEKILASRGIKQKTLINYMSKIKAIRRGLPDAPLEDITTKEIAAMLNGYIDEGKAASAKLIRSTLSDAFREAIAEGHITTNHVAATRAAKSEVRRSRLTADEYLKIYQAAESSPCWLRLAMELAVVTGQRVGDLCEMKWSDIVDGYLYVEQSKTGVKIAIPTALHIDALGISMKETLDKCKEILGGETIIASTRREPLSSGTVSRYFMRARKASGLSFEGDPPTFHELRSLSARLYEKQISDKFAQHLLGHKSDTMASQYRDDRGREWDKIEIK
Protocol: (§1) FIG. 11 depicts effect of peptide KWWCRW (diamonds) and peptide KWWWRW (squares) on the remaining 3 pathways of Int-mediated recombination. Recombination extents were normalized to the amount of recombination in untreated reactions and expressed as relative % recombination. A. Effect of peptides on integrative recombination (IC50 values for both peptides are roughly 0.2 μM). Reactions were assembled as for bent-L recombination except that they were incubated at room temperature, the substrates were a supercoiled plasmid (4.8 kb) carrying attP and ^32P labeled 91 bp PCR fragment encoding attB. […] The recombination substrates were PCR fragments encoding the attL (^32P-labeled) and attR sites. Reactions contained 50 NM Xis in addition to Int and IHF (37 nM), as well as 100 ng salmon sperm DNA, and were incubated at room temperature. C. Effect of peptides on straight-L recombination (IC50 values for peptide KWWCRW is 0.06 μM, while for peptide KWWWRW is slightly over 0.1 μM). Reactions were assembled as for bent-L recombination except that they were incubated at room temperature; the substrates were two PCR fragments, one of which was ^32P-labeled and 187 bp, the other of which was unlabeled and 496 bp.
(§2) Int Assays. […] Dried gels were visualized and quantitated using a Molecular Dynamics PhosphorImager.

[4] = target: T2, bacteriophage λ Integrase (Int) (Escherichia phage lambda, UniProt P03700); assay: Int-mediated integrative recombination; assay type: biochemical; conditions: IC50, inhibition of integrative recombination, integration pathway
T2 sequence (P03700 1-356): T1 sequence (P03700 1-356)
T2 sequence (P0A6X7 1-99 partner): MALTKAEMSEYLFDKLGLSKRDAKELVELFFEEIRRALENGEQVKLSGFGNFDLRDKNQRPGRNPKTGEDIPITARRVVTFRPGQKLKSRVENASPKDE
T2 sequence (P0A6Y1 1-94 partner): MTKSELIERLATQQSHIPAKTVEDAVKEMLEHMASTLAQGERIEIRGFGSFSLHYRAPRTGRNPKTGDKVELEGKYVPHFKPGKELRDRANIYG
Protocol: as §1, §2

[5] = target: restriction enzymes with unique sites in pUC19; assay: Restriction enzyme assays, all enzymes tested; assay type: biochemical
Protocol: Restriction enzyme assays. Restriction digests were performed as specified and the products were separated on 0.8% agarose gels electrophoresed at 80-90V in 1× Tris borate EDTA buffer. Gels were photographed, scanned and quantitated using NIH Image v.1.55, as recommended in the instruction manual.

vaccinia topoisomerase = target: T3, vaccinia topoisomerase (Vaccinia virus, UniProt P68698); assay: Gel shift of noncovalent topoisomerase-DNA complex (60-bp duplex with CCCTT site); assay type: binding; conditions: 0.72 to 1.8 μM peptide
T3 construct: made in house; host or cells: Escherichia coli BL21 infected with bacteriophage λCE6
Description: To test whether the peptide interferes with the noncovalent association of topoisomerase with the DNA, we assayed the effects of the peptides on the binding of vaccinia topoisomerase to a radiolabeled 60-bp duplex DNA containing a single central CCCTT recognition site. In contrast to the suicide substrate, for which all bound enzymes are trapped in the covalent state, only about 20% of the fully double-stranded DNA molecules that are bound will be linked covalently to the protein (Wittschieben and Shuman, 1997).

| Substance | effect on DNA relaxation [1] | effect on rate of resolution of gel-isolated excision HJs [2] | IC50 [3] | IC50 [4] | IC50 ([1]; supercoiled pUC19) | IC50 [5] | effect on formation of the noncovalent topoisomerase-DNA complex (vaccinia topoisomerase) |
| --- | --- | --- | --- | --- | --- | --- | --- |
| WKHYNY-NH2 [Peptide 52, WKHYNY] | no effect | slowed the rate of cleavage |  |  |  |  |  |
| KWWWRW-NH2 [Peptide 56, KWWWRW] |  |  | > 100 nM | ~200 nM |  |  |  |
| KWWCRW-NH2 [Peptide 59, KWWCRW] | blocked it completely |  | 60 nM | 300 nM | 40000 nM | ~40000 nM | did not inhibit |
